These are literature values, as cited in patent US20060148833A1, “Use of chymase inhibitors for the prevention and/or treatment of arterio-venous graft failure” (priority 2002, published 2006).

One data set concerns dog carotid artery. Particulars: dog carotid artery balloon injury model.
A further data set has as its system vein graft. Particulars: dog model of vein graft injury.
Data set [1] relates to balloon-injured dog coronary arteries. Particulars: by suppression of vascular chymase levels.
Data set [2] deals with restenosis following PTCA. Particulars: oral administration over three months, clinical trials.

As for `O=CNc1cnc(-c2ccccc2)n(CC(=O)NC(Cc2ccccc2)C(=O)C(=O)CCCOc2ccccn2)c1=O` (stereo not shown) [NK3201, 2-(5-formylamino-6-oxo-3-phenyl-1,6,-dihydropyrmidine-1-yl)-N-{2,3-dioxo-6-(2-pyridyloxy)-1-phenylmethyl}hexyl acetamide], in the data set on dog carotid artery, the intimal hyperplasia entry is on record as “inhibit intimal hyperplasia”. Also, the “vascular proliferation and subsequent neointima formation” value in the data set on vein graft was “inhibit vascular proliferation and subsequent neointima formation”.

As for `COc1ccc(C=CC(=O)Nc2ccccc2C(=O)O)cc1OC` [Tranilast, N-(3,4-dimethoxycinnamoyl) anthranilic acid], the neointima formation result in data set [1] is “suppresses neointima formation”. Moreover, the “rate of restenosis following PTCA” value in data set [2] is reported as “markedly reduce the rate of restenosis”.
